SMILES strings stand for the structures. Starred links: 1 amine or outer side, 2 acyl side, 3 side chain; linkers in the order of their positions; H or OH if unused. Positions of bridges follow the written chain, without caps; N, C: chain ends. Non-standard residues stand in square brackets, D forms with d. Residues, ends and D or L forms follow the SMILES beside them. ξ: configuration not given here. X5 = NC(=O)CNC(=O)[C@H](CSCC(=O)[*:1])CC(=O)C1(N[*:2])CC1; Bta = N[C@@H](Cc1csc2ccccc12)C(=O)O; Hyp = O=C(O)[C@@H]1C[C@@H](O)CN1; NMeNle = CCCC[C@H](NC)C(=O)O; hLeu = CC(C)CC[C@H](N)C(=O)O; NMeA = CN[C@@H](C)C(=O)O; Dab = NCC[C@H](N)C(=O)O; Dap = NC[C@H](N)C(=O)O; Ac3c = NC1(C(=O)O)CC1; Aib = CC(C)(N)C(=O)O; ξC = NC(CS)C(=O)O; Sar = CNCC(=O)O

T1 sequence (Q9NZQ7 with tags, fused parts or gaps): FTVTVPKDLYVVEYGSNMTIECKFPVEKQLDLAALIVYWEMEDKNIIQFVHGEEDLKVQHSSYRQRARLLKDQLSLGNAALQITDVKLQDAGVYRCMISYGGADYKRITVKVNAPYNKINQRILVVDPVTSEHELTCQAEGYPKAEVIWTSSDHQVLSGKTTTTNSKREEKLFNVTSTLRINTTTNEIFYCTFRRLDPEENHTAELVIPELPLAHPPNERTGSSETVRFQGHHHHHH

One assay addresses T1, PD-1-Ig binding to PD-L1-TVMV-His (PD-L1-His) (Homo sapiens, UniProt Q9NZQ7).
T1 construct: hPDL1(19-239)-TVMV-His; TVMV protease cleavage site (C); made in house; host or cells: HEK293T cells
Briefly: PD-1/PD-L1 Homogenous Time-Resolved Fluorescence (HTRF) binding assay. To be noted: PD-1-Ig/PD-L1-His binding; numeric values. An excerpt: The ability of the macrocyclic peptides of the present disclosure to bind to PD-L1 was investigated using a PD-1/PD-L1 Homogenous Time-Resolved Fluorescence (HTRF) binding assay.
Homogenous Time-Resolved Fluorescence (HTRF) Assays of Binding of Soluble PD-1 to Soluble PD-L1. Soluble PD-1 and soluble PD-L1 refers to proteins with carboxyl-end truncations that remove the transmembrane-spanning regions and are fused to heterologous sequences, specifically the Fc portion of the human immunoglobuling G sequence (Ig) or the hexahistidine epitope tag (His). All binding studies were performed in an HTRF assay buffer consisting of dPBS supplemented with 0.1% (w/v) bovine serum albumin and 0.05% (v/v) Tween-20. For the PD-1-Ig/PD-L1-His binding assay, inhibitors were pre-incubated with PD-L1-His (10 nM final) for 15 m in 4 μl of assay buffer, followed by addition of PD-1-Ig (20 nM final) in 1 μl of assay buffer and further incubation for 15 m. PD-L1 fusion proteins from either human, cynomologous macaques, mouse, or other species were used. HTRF detection was achieved using europium crypate-labeled anti-Ig monoclonal antibody (1 nM final) and allophycocyanin (APC) labeled anti-His monoclonal antibody (20 nM final). Antibodies were diluted in HTRF detection buffer and 5 μl was dispensed on top of binding reaction. The reaction was allowed to equilibrate for 30 minutes and signal (665 nm/620 nm ratio) was obtained using an EnVision fluorometer. Additional binding assays were established between PD-1-Ig/PD-L2-His (20 and 5 nM, respectively), CD80-His/PD-L1-Ig (100 and 10 nM, respectively) and CD80-His/CTLA4-Ig (10 and 5 nM, respectively). Binding/competition studies between biotinylated Compound No. 71 and human PD-L1-His were performed as follows. Macrocyclic peptide inhibitors were pre-incubated with PD-L1-His (10 nM final) for 60 minutes in 4 μl of assay buffer followed by addition of biotinylated Compound No. 71 (0.5 nM final) in 1 μl of assay buffer. Binding was allowed to equilibrate for 30 minutes followed by addition of europium crypated labeled Streptavidin (2.5 pM final) and APC-labeled anti-His (20 nM final) in 5 μl of HTRF buffer. The reaction was allowed to equilibrate for 30 m and signal (665 nm/620 nm ratio) was obtained using an EnVision fluorometer.
Recombinant Proteins. Carboxyl-truncated human PD-1 (amino acids 25-167) with a C-terminal human Ig epitope tag [hPD-1 (25-167)-3S-IG] and human PD-L1 (amino acids 18-239) with a C-terminal His epitope tag [hPD-L1(19-239)-tobacco vein mottling virus protease cleavage site (TVMV)-His] were expressed in HEK293T cells and purified sequentially by recombinant Protein A affinity chromatography and size exclusion chromatography. Human PD-L2-His (Sino Biologicals), CD80-His (Sino Biologicals), CTLA4-Ig (RnD Systems) were all obtained through commercial sources.
Ranges are as follows: A=0.10-10 μM; B=0.01-0.099 μM; C=0.004-0.0099 μM.
For orientation: In TR-FRET formats the signal depends on donor and acceptor labels being close together.
As to `CCCC[C@H]1C(=O)N(C)[C@@H](CCCC)C(=O)N[C@@H](CCCNC(=N)N)C(=O)NC(C(=O)NCC(N)=O)CSCC(=O)N[C@@H](Cc2ccc(O)cc2)C(=O)NC2(CC2)C(=O)N[C@@H](CC(N)=O)C(=O)N2CCC[C@H]2C(=O)N[C@@H](Cc2c[nH]cn2)C(=O)N[C@@H](CC(C)C)C(=O)N2C[C@H](O)C[C@H]2C(=O)N[C@@H](Cc2c[nH]c3ccccc23)C(=O)N[C@@H](CO)C(=O)N[C@@H](Cc2c[nH]c3ccccc23)C(=O)N1C` (stereo partly drawn) [Example 9002], the IC50 (usually the concentration needed to halve the response being measured) worked out at 4.13 nM.
Take `CCCC[C@H]1C(=O)N(C)[C@@H](CCCC)C(=O)NC2(CC2)C(=O)N[C@H](C(=O)NCC(N)=O)CSCC(=O)N[C@@H](Cc2ccc(O)cc2)C(=O)N(C)[C@@H](C)C(=O)N[C@@H](CC(N)=O)C(=O)N2CCC[C@H]2C(=O)N[C@@H](CN)C(=O)N[C@@H](CC(C)C)C(=O)N2C[C@H](O)C[C@H]2C(=O)N[C@@H](Cc2c[nH]c3ccccc23)C(=O)N[C@@H](CCN)C(=O)N[C@@H](Cc2c[nH]c3ccccc23)C(=O)N1C` [Example 9006] ({CH2CO}-Y[NMeA]NP[Dap]L[Hyp]W[Dab]W[NMeNle][NMeNle][Ac3c]CG-NH2; thioether N-14): the 50% inhibitory concentration (IC50) amounted to 40 nM.
Regarding `CCCC[C@H]1C(=O)N(C)[C@@H](CCCC)C(=O)N[C@@H](CC(C)C)C(=O)N[C@H](C(=O)NCC(N)=O)CSCC(=O)N[C@@H](Cc2ccc(O)cc2)C(=O)N(C)[C@@H](C)C(=O)N[C@@H](CC(N)=O)C(=O)N2CCC[C@H]2C(=O)N[C@@H](CN)C(=O)N[C@@H](CC(C)C)C(=O)N2C[C@H](O)C[C@H]2C(=O)N[C@@H](Cc2c[nH]c3ccccc23)C(=O)NC2(CC2)C(=O)N[C@@H](Cc2c[nH]c3ccccc23)C(=O)N1C` [Example 9008] ({CH2CO}-Y[NMeA]NP[Dap]L[Hyp]W[Ac3c]W[NMeNle][NMeNle]LCG-NH2; thioether N-14), the IC50 stood at 3620 nM.

Still in this assay, the particulars now being: PD-1-Ig/PD-L1-His binding; values given as range classes.
For the compound `CCCC[C@H]1C(=O)N(C)[C@@H](CCCC)C(=O)N[C@@H](CCCNC(=N)N)C(=O)N[C@H](C(=O)NCC(N)=O)CSCC(=O)N[C@@H](Cc2ccccc2)C(=O)N(C)[C@@H](C)C(=O)N[C@@H](CC(N)=O)C(=O)N2CCC[C@H]2C(=O)N[C@@H](Cc2cnc[nH]2)C(=O)N[C@@H](CC(C)C)C(=O)NC2(CCCC2)C(=O)N[C@@H](Cc2c[nH]c3ccccc23)C(=O)N[C@@H](CO)C(=O)N[C@@H](Cc2c[nH]c3ccccc23)C(=O)N1C` [Example 1001], the IC50 is 100 to 10000 nM.
`CCCC[C@H]1C(=O)N(C)[C@@H](CCCC)C(=O)N[C@@H](CCCNC(=N)N)C(=O)N[C@H](C(=O)NCC(N)=O)CSCC(=O)N[C@@H](Cc2ccccc2)C(=O)N(C)[C@@H](C)C(=O)N[C@@H](CC(N)=O)C(=O)N2CCC[C@H]2C(=O)N[C@@H](Cc2cnc[nH]2)C(=O)N[C@@H](CC(C)C)C(=O)NC(C)(C)C(=O)N[C@@H](Cc2c[nH]c3ccccc23)C(=O)N[C@@H](CO)C(=O)N[C@@H](Cc2c[nH]c3ccccc23)C(=O)N1C` [Example 1002]: the concentration for half-maximal inhibition (IC50) was in the range of 100 to 10000 nM.
The compound `CCCC[C@H]1C(=O)N(C)[C@@H](CCCC)C(=O)N[C@@H](CCCNC(=N)N)C(=O)N[C@H](C(=O)NCC(N)=O)CSCC(=O)N[C@@H](Cc2ccccc2)C(=O)N(C)[C@@H](C)C(=O)N[C@@H](CC(N)=O)C(=O)N2CCC[C@H]2C(=O)N[C@@H](Cc2cnc[nH]2)C(=O)N[C@@H](CC(C)C)C(=O)N(C)CC(=O)N[C@@H](Cc2c[nH]c3ccccc23)C(=O)NC(C)(C)C(=O)N[C@@H](Cc2c[nH]c3ccccc23)C(=O)N1C` [Example 1003] ({CH2CO}-F[NMeA]NPHL[Sar]W[Aib]W[NMeNle][NMeNle]RCG-NH2; thioether N-14) had an IC50 of 100 to 10000 nM.
Turning to `CCCC[C@H]1C(=O)N(C)[C@@H](CCCC)C(=O)NC2(CC2)C(=O)C[C@H](C(=O)NCC(N)=O)CSCC(=O)N[C@@H](Cc2ccccc2)C(=O)N(C)[C@@H](C)C(=O)N[C@@H](CC(N)=O)C(=O)N2CCC[C@H]2C(=O)N[C@@H](Cc2c[nH]cn2)C(=O)N[C@@H](CCC(C)C)C(=O)NCC(=O)N[C@@H](Cc2c[nH]c3ccccc23)C(=O)N[C@@H](CO)C(=O)N[C@@H](Cc2c[nH]c3ccccc23)C(=O)N1C` [Example 5001] (F[NMeA]NPH[hLeu]GWSW[NMeNle][NMeNle]; linker N-C via X5), the IC50 is 100 to 10000 nM.
On to `CCCC[C@H]1C(=O)N(C)[C@@H](CCCC)C(=O)N[C@@H](CCCNC(=N)N)C(=O)NC(C(=O)NCC(N)=O)CSCC(=O)N[C@@H](Cc2ccc(O)cc2)C(=O)NC2(CC2)C(=O)N[C@@H](CC(N)=O)C(=O)N2CCC[C@H]2C(=O)N[C@@H](Cc2c[nH]cn2)C(=O)N[C@@H](CC(C)C)C(=O)N2C[C@H](O)C[C@H]2C(=O)N[C@@H](Cc2c[nH]c3ccccc23)C(=O)N[C@@H](CO)C(=O)N[C@@H](Cc2csc3ccccc23)C(=O)N1C` (stereo partly drawn) [Example 9001] ({CH2CO}-Y[Ac3c]NPHL[Hyp]WS[Bta][NMeNle][NMeNle]R[ξC]G-NH2; thioether N-14), for which the IC50 is 4 to 9.9 nM.
The compound `CCCC[C@H]1C(=O)N(C)[C@@H](CCCC)C(=O)N[C@@H](CCCNC(=N)N)C(=O)NC(C(=O)NCC(N)=O)CSCC(=O)N[C@@H](Cc2ccc(O)cc2)C(=O)NC(C)(C)C(=O)N[C@@H](CC(N)=O)C(=O)N2CCC[C@H]2C(=O)N[C@@H](Cc2c[nH]cn2)C(=O)N[C@@H](CC(C)C)C(=O)N2C[C@H](O)C[C@H]2C(=O)N[C@@H](Cc2c[nH]c3ccccc23)C(=O)N[C@@H](CO)C(=O)N[C@@H](Cc2csc3ccccc23)C(=O)N1C` (stereo partly drawn) [Example 9003] ({CH2CO}-Y[Aib]NPHL[Hyp]WS[Bta][NMeNle][NMeNle]R[ξC]G-NH2; thioether N-14) yielded a half-inhibitory concentration (IC50) of 10 to 99 nM.
For `CCCC[C@H]1C(=O)N(C)[C@@H](CCCC)C(=O)N[C@@H](CCCNC(=N)N)C(=O)NC(C(=O)NCC(N)=O)CSCC(=O)N[C@@H](Cc2ccc(O)cc2)C(=O)NC(C)(C)C(=O)N[C@@H](CC(N)=O)C(=O)N2CCC[C@H]2C(=O)N[C@@H](Cc2c[nH]cn2)C(=O)N[C@@H](CC(C)C)C(=O)N2C[C@H](O)C[C@H]2C(=O)N[C@@H](Cc2c[nH]c3ccccc23)C(=O)N[C@@H](CO)C(=O)N[C@@H](Cc2c[nH]c3ccccc23)C(=O)N1C` (stereo partly drawn) [Example 9004], the IC50 lay in the range of 10 to 99 nM.
In the case of `CCCC[C@H]1C(=O)N(C)[C@@H](CCCC)C(=O)NC(C)(C)C(=O)N[C@H](C(=O)NCC(N)=O)CSCC(=O)N[C@@H](Cc2ccc(O)cc2)C(=O)N(C)[C@@H](C)C(=O)N[C@@H](CC(N)=O)C(=O)N2CCC[C@H]2C(=O)N[C@@H](CN)C(=O)N[C@@H](CC(C)C)C(=O)N2C[C@H](O)C[C@H]2C(=O)N[C@@H](Cc2c[nH]c3ccccc23)C(=O)N[C@@H](CCN)C(=O)N[C@@H](Cc2c[nH]c3ccccc23)C(=O)N1C` [Example 9005] ({CH2CO}-Y[NMeA]NP[Dap]L[Hyp]W[Dab]W[NMeNle][NMeNle][Aib]CG-NH2; thioether N-14), the IC50 lay within 100 to 10000 nM.
Same read-out and setting: in the case of `CCCC[C@H]1C(=O)N(C)[C@@H](CCCC)C(=O)N[C@@H](CC(C)C)C(=O)N[C@H](C(=O)NCC(N)=O)CSCC(=O)N[C@@H](Cc2ccc(O)cc2)C(=O)N(C)[C@@H](C)C(=O)N[C@@H](CC(N)=O)C(=O)N2CCC[C@H]2C(=O)N[C@@H](CN)C(=O)N[C@@H](CC(C)C)C(=O)N2C[C@H](O)C[C@H]2C(=O)N[C@@H](Cc2c[nH]c3ccccc23)C(=O)NC(C)(C)C(=O)N[C@@H](Cc2c[nH]c3ccccc23)C(=O)N1C` [Example 9007] ({CH2CO}-Y[NMeA]NP[Dap]L[Hyp]W[Aib]W[NMeNle][NMeNle]LCG-NH2; thioether N-14) it was 100 to 10000 nM.

For the origin of these results see patent US9944678B2, “Immunomodulators” (BRISTOL-MYERS SQUIBB COMPANY, priority 2014, dated 2018).
